Results published in patent US20180284095A1, “BIOMARKERS ASSOCIATED WITH LSD1 INHIBITORS AND USES THEREOF” (Oryzon Genomics, S.A., priority 2015, published 2018).

How the values were obtained:
SAMP8 mice = assay: Platelet levels (hemogram) in SAMP8 mice; format: in vivo, mouse
Experimental: It is known that LSD1 is implicated in normal hematopoiesis (SprDssel et al, Leukemia 2012, 26(9)2039-51). […] The mice were sacrificed and blood was collected in sodium citrate-containing tubes for hemogram analysis. Platelets levels were determined in a standard hematology analyzer (Abacus Junior Vet, from Diatron) following the manufacturer's instructions.

S100A8 [1] = assay: qRT-PCR, hippocampus of SAMP8 mice (Example 5); format: in vivo, mouse; details: SAMP8 female mice
Description: (§1) qRT-PCR is a variant of the PCR (Polymerase Chain Reaction) method that permits the simultaneous exponential amplification and detection of specific cDNA fragments. The Taqman gene expression assays employ the principle of doubly labeled hydrolysis probes. The probes are marked with a fluorescent moiety at their 5′ end and with a quencher moiety at the 3′ end, which prevents the generation of fluorescence according to the Förster energy transfer principle.
(§2) During the amplification process, the hydrolysis probe hybridizes to its complementary sequence in the target amplicon. During each cycle, the Taq polymerase initiates the production of a copy of the target sequence starting from the primer. When the Taq polymerase reaches the hydrolysis probe, its 5′-3′ exonuclease activity fragments the hydrolysis probe, and liberates the fluorescent group from the quencher moiety, resulting in the emission of a fluorescent signal.
(§3) In the exponential phase of the amplification reaction, the intensity of the fluorescence is directly proportional to the quantity of PCR product formed. The LightCycler® 480 Software determines the “crossing point” (Cp), i.e. the point where the reaction's fluorescence reaches the maximum of the second derivative of the amplification curve, which corresponds to the point where the acceleration of the fluorescence signal is at its maximum. […] The 2-Cp values are proportional to the target mRNA concentration in the original RNA sample.
(§4) Samples from animals receiving treatment for 2 months and 4 months were processed and statistically analyzed together. After extraction (RNeasy Mini KIT; QIAGEN), total RNA was reverse transcribed to obtain 1st strand cDNA (High Capacity RNA-to-cDNA Master Mix; Applied Biosystems). A serial dilution of 1st strand product from hippocampus was used to perform triplicate qRT-PCR (Taqman gene expression assay, Life technologies) reactions to analyze the Cp values of S100A8 and S100A9. Cp increase was normalized relative to the expression level of an endogenous reference gene (GADPH).

S100A9 [2] = assay: qRT-PCR, hippocampus of SAMP8 mice (Example 5); format: in vivo, mouse; details: 2 or 4 months
Description: as §1, §2, §3, §4

S100A8 [3] = assay: Microarray gene expression, hippocampus of SAMP8 mice (Example 3); format: in vivo, mouse; details: for Hybridization signal sample_Cy5 S100A8 / log2 (sample/control) S100A8: SAMP8 female pool
Experimental: (§5) Total RNA was extracted from samples using the RNeasy extraction kit (Qiagen). The quality and concentration of the RNA was analyzed using the Agilent 2100 bioanalyzer and NanoDrop™ ND-1000 (Thermo Scientific). Samples with RNA integrity number (RIN)<6.0 were discarded. Total RNA (0.5 μg) amplification and labelling with Cy3 or Cy5 was carried out using the Eberwein mRNA amplification procedure (Van Gelder et al, Proc Natl Acad Sci USA 1990, 87:1663-1667) employing the MessageAmp™ aRNA amplification kit from Ambion (Applied Biosystems) following the manufacturer's instructions with minor modifications. As hybridization controls, plant mRNAs were transcribed from a plasmid containing the Zea mays Xet (xyloglucan endo-transglycosylase) cDNA and from a plasmid containing the Zea mays Zmmyb42 cDNA, independently prepared Cy3 and Cy5 labelled aRNA from these two RNAs using the Eberwein mRNA amplification procedure (as disclosed in Cerdà et al, Gen Comp Endocrinol 2008, 156:470-481).
(§6) The Cy3- and Cy5-labelled cRNAs and spikes were combined and hybridized to the microarray described in Example 2.6 for 17 h at 60° C. using Agilent's gaskets G2534-60002, G2534A hybridization chambers and DNA Hybridization Oven G2545A, according to the manufacturer's instructions. More specifically, equal amounts of Cy3 and Cy5 labeled Xet aRNA as well as equal amounts of Cy3 and Cy5 labeled Zmmyb42 aRNA were spiked into each mixture hybridized to the array. Arrays were washed and raw data were obtained using Agilent's DNA Microarray Scanner G2505B and Feature Extraction software (v10.1). The raw fluorescence intensity data were processed using applicant's proprietary software, and consists in the following operations:
(§7) Data normalization was carried out by an improved version of the nonlinear Q-splines normalization method (Workman et al., Genome Biol 2002, 3(9):research0048.1-0048.16). Normalization results were presented graphically as MA plots, as first described by Dudoit et al (Dudoit et al, Statistica Sinica, 2002, 12:111-139). Each point corresponds to a probe of the DNA array. M values (vertical axis) are the log-differential expression ratios. A values (horizontal axis) are the log-intensities of the spots. M and A are calculated from the Cy5 and Cy3 intensity values as of each spot. The DNA Array data is normalized using an improved version of non-linear Q-Splines normalization described by Workman et al., Genome Biol 2002, 3(9):research0048.1-0048.16. This process is useful to correct the deviation of the M values from the statistical assumption that most of the spots have M=0 in MA plots. The method allows the adjustment of all M values to form a cloud centered at M=0 in all intensity ranges. The data used to calculate the normalization fitting curve is the totality of the raw measurement dataset, excluding the signals for the probes for the spiked-in plant RNA controls and negative controls. In order to be able to normalize properly the data among all the experiments, the probe-set must include an important group of genes that should have no change (M=0) in the experiment. The normalization function is then applied to all the data, including controls.
(§8) Normalized and log-transformed data were used to calculate log 2 (sample/control) and Fold Change (FC) values. No background subtraction was applied to the signal intensity values during data processing, permitting robust selection of differentially expressed genes with low expression levels at the cost of potential sub-estimation of change when intensity levels are close to the array background level.
(§9) The technical replicate analysis is the statistical processing of the microarray data. Replicates were calculated to measure oligo replicates on an array or between replicates of experiments on different arrays (i.e. hybridization of the same sample). […]

S100A9 [4] = assay: as above; format: in vivo, mouse; details: for Hybridization signal sample_Cy5 S100A9 / log2 (sample/control) S100A9: SAMP8 female pool
Experimental: as §5, §6, §7, §8, §9

[5] = Oral availability and blood-brain barrier crossing (statement)
[6] = SAMP8 females, treatment vs vehicle

Question: For “(−) 5-((((trans)-2-(4-(benzyloxy)phenyl)cyclopropyl)amino)methyl)-1,3,4-oxadiazol-2-amine [Compound 1]”, which platelet levels (SAMP8 mice; SAMP8, HD (3.2 mg/kg/day)) is on record?
Answer: Its platelet levels is “significant reduction of platelet levels”.

Question: What about the platelet levels (SAMP8 mice; SAMP8, LD (0.96 mg/kg/day)) of the same substance?
Answer: The platelet levels was “no significant reduction of platelet levels”.

Question: And the platelet levels (SAMP8 mice; SAMP8 males, 0.96 mg/kg/day, 16 weeks (4 months), vs vehicle-treated SAMP8, 0.96 mg/kg/day)?
Answer: Its platelet levels is “no statistically significant effects”.

Question: And the platelet levels (SAMP8 mice; SAMP8 males, 0.96 mg/kg/day, 16 weeks (4 months), vs vehicle-treated SAMP8, listed as compound 1, 0.96 mg/kg/day)?
Answer: The platelet levels was “no changes in the platelet blood count”.

Question: And the “S100A8 expression (qRT-PCR)” value (S100A8 [1])?
Answer: Its value is “down-regulated S100A8 expression tendency”.

Question: And the “S100A9 expression (Δ Cp, qRT-PCR)” value (S100A9 [2]; SAMP8 females, 0.96 mg/kg/day (p<0.001) and 3.2 mg/kg/day (p<0.001))?
Answer: The value was “down-regulated S100A9 expression in a dose-dependent fashion”.

Question: What about the “S100A9 expression (Δ Cp, qRT-PCR)” value (S100A9 [2]; SAMP8 females, 0.96 mg/kg/day (p<0.001) and 3.2 mg/kg/day (p<0.001), listed as compound 1) of the same substance?
Answer: The value was “reduction of S100A9 expression”.

Question: What about the “S100A9 expression (Δ Cp, qRT-PCR)” value (S100A9 [2]; SAMP8 males, 0.96 mg/kg (p<0.001), 0.96 mg/kg) of the same substance?
Answer: Its value is “down-regulated S100A9 expression”.

Question: And the “S100A9 expression (Δ Cp, qRT-PCR)” value (S100A9 [2]; SAMP8 males, 0.96 mg/kg (p<0.001), listed as compound 1, 0.96 mg/kg)?
Answer: Its value is “reduction of S100A9 expression”.

Question: What about the “Hybridization signal sample_Cy5 S100A8” value (S100A8 [3]; HD 3.2 mg/kg/day) of the same substance?
Answer: The value was 77.0786.

Question: What about the “log2 (sample/control) S100A8” value (S100A8 [3]; HD 3.2 mg/kg/day vs SAMP8 VEH) of the same substance?
Answer: The value was −0.1813.

Question: What about the “Hybridization signal sample_Cy5 S100A8” value (S100A8 [3]; LD 0.96 mg/kg/day) of the same substance?
Answer: Its value is 70.7119.

Question: And the “log2 (sample/control) S100A8” value (S100A8 [3]; LD 0.96 mg/kg/day vs SAMP8 VEH)?
Answer: Its value is −0.2255.

Question: What about the “S100A8 expression (microarray)” value (S100A8 [3]; [6]) of the same substance?
Answer: Its value is “down-regulated”.

Question: And the “Hybridization signal sample_Cy5 S100A9” value (S100A9 [4]; HD 3.2 mg/kg/day)?
Answer: Its value is 73.2282.

Question: And the “log2 (sample/control) S100A9” value (S100A9 [4]; HD 3.2 mg/kg/day vs SAMP8 VEH)?
Answer: Its value is −0.7647.

Question: And the “Hybridization signal sample_Cy5 S100A9” value (S100A9 [4]; LD 0.96 mg/kg/day)?
Answer: The value was 66.4843.

Question: And the “log2 (sample/control) S100A9” value (S100A9 [4]; LD 0.96 mg/kg/day vs SAMP8 VEH)?
Answer: The value was −0.8381.

Question: And the “S100A9 expression (microarray)” value (S100A9 [4]; [6])?
Answer: The value was “down-regulated”.

Question: And the blood-brain barrier crossing [5]?
Answer: Its blood-brain barrier crossing is “cross the blood-brain barrier”.

Question: What about the oral availability [5] of the same substance?
Answer: Its oral availability is “orally available”.
